# Marks after values point to notes of the source that are not given here.
# How the values were obtained:
# [1] = system: insulin; assay: Brain insulin levels in type-1 diabetes induced rats; format: in vivo, Wistar rats; settings: bands, STZ rats, n = 7; control = 100.00
# Description: (§1) Forty-two Wistar rats were assigned to one of 6 experimental groups: 1) positive control: rats injected with saline 2) type-1 diabetes group: rats injected with streptozotocin (STZ, 65 mg/kg i.p.) to damage beta cells (n=35). Diabetic rats were then administered with a) none, b) Zn alone (6.23 μg ZnO), c) Cr alone (47.7 μg Cr-histidinate), d) Zn-insulin (6.23 μg ZnO+3 IU Ins/100 g BW), or e) Cr-insulin (47.7 μg Cr-histidinate+3 IU Ins/100 g BW), daily for 26 days (n=7 per subgroup). Body weights were measured at the beginning and end of the experiment.
# (§2) Blood samples were collected on days—2 (beginning), 0 (induction), 4, 6, 12, and 26 for blood biochemistry. At the end of the experiment, rats were sacrificed for brain tissue GLUTs (1 and 3). Data were analyzed using one-way ANOVA with LSD option for mean comparison.
# [2] = Body weight of type-1 diabetes induced rats (Example 8); format: in vivo, Wistar rats; settings: Example 8, STZ rats, n = 7; for Initial BW: before treatment; for BW Change / Final BW: daily for 26 days
# Description: as §1, §2
# [3] = system: GLUT-3; assay: Cerebral GLUT-3 expression in type-1 diabetes induced rats; format: in vivo, Wistar rats; settings: STZ rats, daily for 26 days; control = 100.00
# Description: Forty-two Wistar rats were assigned to one of 6 experimental groups: 1) positive control: rats injected with saline 2) type-1 diabetes group: rats injected with streptozotocin (STZ, 65 mg/kg i.p.) to damage beta cells (n=35). Diabetic rats were then administered with a) none, b) Zn alone (6.23 μg ZnO), c) Cr alone (47.7 μg Cr-histidinate), d) Zn-insulin (6.23 μg ZnO+3 IU Ins/100 g BW), or e) Cr-insulin (47.7 μg Cr-histidinate+3 IU Ins/100 g BW), daily for 26 days (n=7 per subgroup).
# At the end of the experiment, rats were sacrificed for brain tissue GLUTs (1 and 3). Data were analyzed using one-way ANOVA with LSD option for mean comparison.
# [4] = system: NFK (nuclear factor kappa B); assay: Brain NFK levels in type-1 diabetes induced rats; format: in vivo, Wistar rats; settings: bands, STZ rats, n = 7; control = 100.00
# Description: as §1, §2
# [5] = system: Tryptophan; assay: Brain tryptophan in type-1 diabetes induced rats; format: in vivo, Wistar rats; settings: STZ rats, n = 7; footnote: daily for 8 weeks
# [6] = system: OCT-1 (organic cation transporter 1); assay: Kidney OCT-1 levels in type-1 diabetes induced rats; format: in vivo, Wistar rats; settings: bands, STZ rats, n = 7; control = 100.00 (percentage of control)
# [7] = system: GLUT-1; assay: Cerebral GLUT-1 expression in type-1 diabetes induced rats; format: in vivo, Wistar rats; settings: STZ rats, daily for 26 days; control = 100.00
# Description: as §1, §2
# [8] = Serum and brain chromium in type-1 diabetes induced rats; settings: STZ rats, n = 7; footnote: daily for 8 weeks
# Description: as §1, §2
# [9] = Blood biochemistry of type-1 diabetes induced rats at the end of the experiment; format: in vivo, Wistar rats; settings: STZ rats, daily for 26 days
# Description: as §1, §2
# [10] = system: OCT-2; assay: Kidney OCT-2 levels in type-1 diabetes induced rats; format: in vivo, Wistar rats; settings: bands, STZ rats, n = 7; control = 100.00
# [11] = Glucose pattern before and after injection in type-1 diabetes induced rats; format: in vivo, Wistar rats; settings: STZ rats; for Glucose, Day 4, After / Glucose, Day 6, After / Glucose, Day 12, After / Glucose, Day 21, After: after injection; for Glucose, Day 4, After / Glucose, Day 4, Before: no unit in table (mg/dl); for Glucose, Day 6, After / Glucose, Day 12, After / Glucose, Day 21, After / Glucose, Day 6, Before / Glucose, Day 12, Before / Glucose, Day 21, Before: no unit in table; for Glucose, Day 4, Before / Glucose, Day 6, Before / Glucose, Day 12, Before / Glucose, Day 21, Before: before injection
# Description: as §1, §2
# [12] = system: MRP2 (multidrug resistance protein 2); assay: Kidney MRP2 levels in type-1 diabetes induced rats; settings: bands, STZ rats, n = 7; control = 100.00
# Description: as §1, §2
# [13] = system: NFK (nuclear factor kappa B); assay: Kidney NFK levels in type-1 diabetes induced rats; format: in vivo, Wistar rats; settings: bands, STZ rats, n = 7; control = 100.00
# [14] = system: GFAP; assay: Hippocampus GFAP expression in insulin-induced hypoglycemic rats; settings: 15 U insulin/kg i.p., 110 μg/kg/day, one week, mean ± s.d.
# Description: (§3) In order to evaluate chromium's potential protective effects preventing insulin-induced hypoglycemia, animals were administered insulin to induce hypoglycemia, and markers of hypoglycemic brain damage were compared in animals with and without administration of chromium.
# (§4) Briefly, hypoglycemia was induced in Sprague-Dawley rats (males, 8-weeks old) by intraperitoneal injection of 15 U insulin/kg BW. The rats were separated into four groups of 15 rats each: (1) a control group not receiving insulin (“Control”); (2) a group not administered chromium (“Hypo”); (3) a group administered 110 μg/kg/day of chromium picolinate (CrPic); and, a group administered 110 μg/kg/day of chromium histidinate (CrHis). After one week of dosing, brains were removed from the sacrificed rats and analyzed for markers of hypoglycemic damage: GLUT-1; GLUT-3; Nrf2; GFAP; and HNE.
# [15] = system: GLUT-1; assay: Brain GLUT-1 expression in insulin-induced hypoglycemic rats; settings: 15 U insulin/kg i.p., 110 μg/kg/day, one week, mean ± s.d.
# Description: as §3, §4
# [16] = Serum glucose 0.5 hrs after insulin injection in insulin-induced hypoglycemic rats; format: in vivo, Sprague-Dawley rats; settings: 15 U insulin/kg i.p., 110 μg/kg/day chromium complex, one week, mean ± s.d.
# [17] = system: Serotonin; assay: Brain serotonin in type-1 diabetes induced rats; format: in vivo, Wistar rats; set-up: unit not given here; settings: STZ rats, n = 7; footnote: daily for 8 weeks
# [18] = system: Nrf2; assay: Hippocampus Nrf2 expression in insulin-induced hypoglycemic rats; settings: 15 U insulin/kg i.p., 110 μg/kg/day, one week, mean ± s.d.
# Description: as §3, §4
# [19] = system: GLUT-3; assay: Brain GLUT-3 expression in insulin-induced hypoglycemic rats; settings: 15 U insulin/kg i.p., 110 μg/kg/day, one week, mean ± s.d.
# Description: as §3, §4
# [20] = system: HNE; assay: Hippocampus HNE expression in insulin-induced hypoglycemic rats; settings: 15 U insulin/kg i.p., 110 μg/kg/day, one week, mean ± s.d.
# Description: as §3, §4
# [21] = Brain chromium levels in insulin-induced hypoglycemic rats; settings: 15 U insulin/kg i.p., 110 μg/kg/day, one week, mean ± s.d.
# Description: as §3, §4
compound,measurement,setting,value
"[O]=[Zn] [STZ + Zn, zinc oxide]",Brain ins,[1],44.08 ± 3.31^c
same,Initial BW,[2],195.43 ± 7.63 g
same,BW Change,[2],−9.71 ± 4.03^bc %
same,Final BW,[2],175.71 ± 7.67^bc g
same,cerebral GLUT-3 expression,[3],43.41 ± 3.53^c
same,Brain nfk,[4],150.59 ± 2.73^b
same,Brain Tryptophan,[5],4.54 ± 0.23^d mcg/g
same,Kidney oct1,[6],50.02 ± 2.05^d
same,cerebral GLUT-1 expression,[7],46.82 ± 3.23^c
same,Brain Cr,[8],9.05 ± 0.56^d ng/g
same,Serum Cr,[8],33.65 ± 2.26^d mcg/g
same,ALP,[9],453 ± 11^b U/L
same,ALT,[9],143 ± 9^b U/L
same,AST,[9],328 ± 17^a U/L
same,Albumin,[9],2.59 ± 0.06^b g/dL
same,CK,[9],6872 ± 1248^b U/L
same,Creatinine,[9],1.05 ± 0.07^b mg/dL
same,Glucose,[9],456 ± 13^ab mg/dL
same,Insulin,[9],20.9 ± 0.9^bc μU/mL
same,K,[9],5.53 ± 0.09^b mmol/L
same,LDH,[9],2564 ± 85^ab U/L
same,Total protein,[9],5.91 ± 0.07^b g/dL
same,Urea,[9],65.6 ± 1.0^b mg/dL
same,Uric acid,[9],6.49 ± 0.69^ab mg/dL
same,Kidney oct2,[10],51.38 ± 1.17^d
same,"Glucose, Day 4, After",[11],303
same,"Glucose, Day 6, After",[11],372
same,"Glucose, Day 12, After",[11],412
same,"Glucose, Day 21, After",[11],329
same,"Glucose, Day 4, Before",[11],457
same,"Glucose, Day 6, Before",[11],350
same,"Glucose, Day 12, Before",[11],421
same,"Glucose, Day 21, Before",[11],380
same,Kidney mrp2,[12],148.73 ± 2.74^b
same,Kidney nfk,[13],120.31 ± 1.65^b
chromium histidinate [CrHis],Hippocampus GFAP Expression,[14],204.9 ± 4.9 % Control
same,Brain ins,[1],47.89 ± 4.67^c
same,Initial BW,[2],195.43 ± 5.94 g
same,BW Change,[2],−10.17 ± 3.94^bc %
same,Final BW,[2],176.57 ± 12.27^bc g
same,cerebral GLUT-3 expression,[3],49.41 ± 2.39^c
same,Cerebellum GLUT-1 Expression,[15],83.0 ± 4.2 % Control
same,Cortex GLUT-1 Expression,[15],99.9 ± 7.3 % Control
same,Hippocampus GLUT-1 Expression,[15],103.7 ± 2.8 % Control
same,Serum Glucose at 0.5 hrs,[16],42.6 ± 6.8 mg/dL
same,Brain Serotonin,[17],512 ± 7
same,Brain nfk,[4],134.24 ± 4.10^b
same,Brain Tryptophan,[5],4.74 ± 0.36^d mcg/g
same,Hippocampus Nrf2 Expression,[18],61.8 ± 1.4 % Control
same,Cerebellum GLUT-3 Expression,[19],166.9 ± 2.2 % Control
same,Cortex GLUT-3 Expression,[19],287.5 ± 31.3 % Control
same,Hippocampus GLUT-3 Expression,[19],177.8 ± 4.7 % Control
same,Kidney oct1,[6],50.90 ± 1.71^d
same,cerebral GLUT-1 expression,[7],53.81 ± 3.53^c
same,Brain Cr,[8],11.87 ± 0.89^c ng/g
same,Serum Cr,[8],48.64 ± 2.70^c mcg/g
same,Hippocampus HNE Expression,[20],140.1 ± 12.0 % Control
same,ALP,[9],442 ± 13^bc U/L
same,ALT,[9],125 ± 12^bc U/L
same,AST,[9],291 ± 24^ab U/L
same,Albumin,[9],2.74 ± 0.06^ab g/dL
same,CK,[9],6745 ± 934^b U/L
same,Creatinine,[9],0.90 ± 0.08^bc mg/dL
same,Glucose,[9],423 ± 15^bc mg/dL
same,Insulin,[9],22.0 ± 0.8^bc μU/mL
same,K,[9],5.57 ± 0.12^b mmol/L
same,LDH,[9],2367 ± 52^b U/L
same,Total protein,[9],6.07 ± 0.12^b g/dL
same,Urea,[9],62.1 ± 2.5^bc mg/dL
same,Uric acid,[9],6.21 ± 0.57^b mg/dL
same,Kidney oct2,[10],53.50 ± 1.13^d
same,Brain Cr Levels,[21],21.6 ± 1.7 ng/g
same,"Glucose, Day 4, After",[11],237
same,"Glucose, Day 6, After",[11],349
same,"Glucose, Day 12, After",[11],349
same,"Glucose, Day 21, After",[11],303
same,"Glucose, Day 4, Before",[11],403
same,"Glucose, Day 6, Before",[11],330
same,"Glucose, Day 12, Before",[11],340
same,"Glucose, Day 21, Before",[11],368
same,Kidney mrp2,[12],140.21 ± 2.05^b
same,Kidney nfk,[13],118.86 ± 1.47^b
chromium picolinate [CrPic],Hippocampus GFAP Expression,[14],251.2 ± 9.1 % Control
same,Cerebellum GLUT-1 Expression,[15],75.6 ± 7.6 % Control
same,Cortex GLUT-1 Expression,[15],122.8 ± 1.3 % Control
same,Hippocampus GLUT-1 Expression,[15],102.3 ± 5.5 % Control
same,Serum Glucose at 0.5 hrs,[16],40.7 ± 5.2 mg/dL
same,Hippocampus Nrf2 Expression,[18],38.9 ± 3.6 % Control
same,Cerebellum GLUT-3 Expression,[19],206.3 ± 6.4 % Control
same,Cortex GLUT-3 Expression,[19],319.5 ± 14.6 % Control
same,Hippocampus GLUT-3 Expression,[19],198.6 ± 8.9 % Control
same,Hippocampus HNE Expression,[20],162.5 ± 12.4 % Control

# From patent US8933022B2, “Methods and compositions for the treatment and prevention Hypoglycemia and related disorders” (JDS Therapeutics, LLC, priority 2011, dated 2015)
